Results taken from patent publication US8987211B2, “Therapeutic peptides and use thereof against huntington's disease” (Centre National de la Recherche Scientifique (CNRS), priority 2011, dated 2015).
Entries after “also recorded” stand apart in the source; their conditions may differ. Each block holds one molecule with its values, some of them ahead of it. No end group written: not given here.

Assays:
[1] = tested on: GFP-hHtt171aa-136Q (GFP-polyQ-hHtt protein); test: Cotransfection in HeLa cells, polyQ-hHtt aggregation visualised by anti-GFP immunodetection; format: cell-based, human; conditions: cotransfection of equivalent quantities of vectors, Myc- or Cherry-tagged peptide
Procedure: Various peptides contained in the 548aa of the human Huntingtin N-terminal fragment have been cloned by Gateway in expression vectors in pcDNA type cultured HeLa cells. Each peptide was tagged either by Myc or by Cherry at its N-terminal end. These various peptides were tested by cotransfection in HeLa cells in the presence of a pcDNA vector expressing a GFP-polyQ-hHtt protein (see FIG. 5). In these experiments, the polyQ-hHtt protein tested corresponded to an hHtt protein covering 171 aa and containing an extended polyQ with a GFP tag at its N-ter end (GFP-hHtt^171aa-136Q). The HeLa cells were cultured in 6-well boxes and transfected by 1.5 μg of total DNA, using JetPei (Qbiogene) reagent. Equivalent quantities of expression vectors (polyQ protein and peptides) are used for the cotransfections. When necessary, pBluescript is used to balance the quantity of DNA. Aggregation of GFP-hHtt^171aa-136Q is visualised by immunodetection with an anti-GFP antibody (see FIG. 5). This protein forms cytoplasmic aggregates (see FIG. 5A).

GFP-hHtt171aa-136Q = test: Co-immunoprecipitation in cotransfected HeLa cells; format: binding, human; conditions: Cherry-pep42, anti-GFP immunoprecipitation, anti-cherry western blot
Procedure: (§1) This assumption was tested by co-immunoprecipitation experiments using HeLa cells cotransfected by GFP-hHtt^171aa-136Q or by GFP-P1 (corresponding to the first 98 aa with no polyQ domain), in the presence of Cherry-pep42. A G/A-agarose protein resin binding an anti-GFP was used to immunoprecipitate the GFP-hHtt^171aa-136Q protein or the GFP-P1 peptide and to co-immunoprecipitate the Cherry-pep42, visualised by an anti-cherry by western blot.

[2] = tested on: GFP-P1 (first 98 aa with no polyQ domain); test: Co-immunoprecipitation in cotransfected HeLa cells; format: binding, human; conditions: Cherry-pep42, GFP-P1, anti-GFP immunoprecipitation
Procedure: as §1

polyQ-hHtt = test: Viability and survival of adult flies affected by polyQ-hHtt; format: in vivo, Drosophila; conditions: summary statement, no example
[3] = tested on: UAS-hHtt67aa-98Q or UAS-hHtt548aa-128Q; test: Eye depigmentation and degeneration in flies expressing polyQ-hHtt (gmr-Gal4); format: in vivo, Drosophila; conditions: 10-day old females, 29° C., polyQ-hHtt (67aa or 548aa)
Procedure: (§2) The eye depigmentation and degeneration phenotypes are analysed in 10-day old females expressing either UAS-hHtt^67aa-98Q or UAS-hHtt^548aa-128Q controlled by the gmr-Gal4 driver, after transfer at 29° C. from the embryogenesis stage (see FIG. 6b, to be compared with the wild flies shown on FIG. 6a). Flies expressing other genes involved in polyQ diseases (UAS-SCA1-polyQ or UAS-SCA3-polyQ) were also analysed (FIG. 6d).

[4] = tested on: OK6-Gal4; UAS-NPY-GFP; UAS-hHtt548aa-128Q larvae; test: Larval locomotion; format: in vivo, Drosophila; conditions: larvae expressing hHtt548aa-128Q
[5] = tested on: HA-hHtt171aa-136Q protein; test: polyQ-hHtt aggregation in Drosophila salivary glands (MS1096-Gal4 driver, immunolabelling); format: in vivo; conditions: third instar larvae, anti-HA immunolabel
Text: The pep4 and pep42 peptides identified as inhibitors of polyQ-hHtt aggregation in HeLa cells were cloned using the Gateway technique in Drosophila pUASt expression vectors, allowing the expression of N-terminal 6Myc- or GFP-tagged peptides.
Transgenic flies expressing these peptides were constructed by injecting vectors in Drosophila embryos. The UAS/Gal4 system (Brand and Perrimon, Development 1993) was used to express these peptides at specific times and in specific tissues, in the presence of an HA- (hemagglutinin) tagged UAS-polyQ-hHtt vector.
The MS1096-Gal4 driver was used to express the HA-hHtt^171aa-136Q protein (detected by an anti-HA antibody) in the salivary glands, in the absence or presence of the GFP-pep42 peptide. […] Salivary glands from dissected third instar larvae were immunolabelled. The glands are fixed for 20 minutes in PBS with 3.7% paraformaldehyde (PFA) and 0.1% Triton then washed in PBS/0.1% Triton. The glands were incubated with the antibodies (anti-HA, then Cy3 conjugate antibody) with 1% BSA.

[6] = target: T1, first 17 amino acids before the polyQ domain of the human Htt protein (Homo sapiens, UniProt P42858); test: Co-immunoprecipitation with first 17 amino acids of Htt; format: binding
T1 construct: using the first 17 amino acids before the polyQ domain of the human Htt protein; expressed in transfected cells; host or cells: HeLa cells (inferred from 'the same experiments')
Procedure: as §1

[7] = tested on: polyQ-hHtt protein, N17 region (the first 17 aa); test: Interference with nucleation step of polyQ-hHtt aggregation; set-up: species or system human; conditions: summary statement, no example
hHtt548aa-128Q protein [8] = test: Axonal transport, fixed larvae (OK6-Gal4; UAS-NPY-GFP); format: in vivo, Drosophila
Procedure: (§3) To test the effect of polyQ-hHtt on axonal transport, the fate of vesicles expressing Neuropeptide Y (NPY) labelled with GFP (NPY-GFP) was monitored, either after dissection and fixation of the larvae, or by real-time microscopy in order to monitor vesicular transport in the motor neurons.
The nervous system of OK6-Gal4 larvae which express vesicles containing NPY-GFP (OK6-Gal4; UAS-NPY-GFP) was dissected and fixed as previously in 3.7% PFA. Incubations with the antibodies and washing are carried out in PBS, 0.3% Triton. Expression of normal Htt^548aa-0Q has no effect on the vesicles which remain numerous and evenly distributed along the axon. Normal Htt, detected by an anti-Htt HU-4C8 antibody (Chemicon, 1:750), lies along the axon and cannot be detected at the neuromuscular junctions (NMJs). Expression of the hHtt^548aa-128Q protein leads to the formation of aggregates along the axons and to abnormal accumulation of the protein at the NMJs. We observe a decrease in the total number of vesicles and their accumulation, especially at the aggregates. In all cases, the vesicles reach the NMJs.

[9] = tested on: UAS-SCA1-polyQ or UAS-SCA3-polyQ; test: Eye degeneration in flies expressing other polyQ disease genes; format: in vivo, Drosophila
Procedure: as §2

hHtt548aa-128Q protein [10] = test: Axonal vesicular transport by real-time microscopy in larva motor neurons; format: in vivo, Drosophila; conditions: segments A3 to A4
Procedure: as §3
For this examination, OK6-Gal4; UAS-NPY-GFP larvae were anaesthetised with ether for 2 minutes and positioned with the ventral side upwards between slide and slip cover in polymerised 1% agarose, for direct visualisation using fluorescence microscopy with a 63× objective, to monitor the movement of the vesicles between segments A3 and A4. A film of 100 photographs is taken every 280 ms. For each film, 20 vesicles were analysed with Image J (manual vesicle tracking plugin developed by F. Cordelières, Institut Curie, Orsay, France). Vesicles with an instantaneous speed of less than 0.01 μm/s are defined as having paused. The mean speed is calculated as being the total distance traveled irrespective of the vesicle direction (anterograde or retrograde) divided by the total estimated time during which the vesicle is monitored. While expression of the hHtt^548aa-128Q protein leads to an increase in the pause time of vesicles and reduces their speed, the presence of pep42 rescues both the vesicle pause time and speed.

[11] = tested on: GFP-hHtt171aa-136Q aggregates; test: Quantification of aggregates by filtration, HeLa cells; format: cell-based, human; conditions: cellulose acetate membrane, anti-GFP, FIG. 5B
Procedure: Protein extracts were obtained according to (Sittler et al., Mol Cell. 1998) with the following modifications: after transfection, the cell pellets are treated with DNase and resuspended in 150 μl 1% SDS and 50 mM DTT in PBS. The samples are boiled for 5 minutes. Two 150 μL aliquots corresponding to independent experiments were filtered together and each point was reproduced 3 times.
The samples were filtered on a cellulose acetate membrane ([…], Schleicher and Schuell) using a Biorad Dot-blot apparatus. The membranes were then subjected to immunodetection with an antibody, either anti-GFP polyclonal for the HeLa cells (Invitrogen, 1:5000) or anti-HA polyclonal for the salivary glands (SC805, Santa-Cruz, 1:200) in order to visualise the aggregates The aggregates are then detected using a secondary anti-rabbit antibody coupled with HRP (horseradish peroxidase, Jackson 1:50 000). The immunoreagent spots are detected with an […] substrate (ECL, Roche) and the quantifications carried out using Image J (see FIG. 5B).

GFP-polyQ-hHtt (Q136) = test: Activity in HeLa cells, aggregate percentage by GFP signal; format: cell-based, human; conditions: increasing quantity of synthetic peptide added to the culture medium, FIG. 7c
Text: HeLa cells are transfected with: • 1—GFP-polyQ-hHtt (Q136), • 2—GFP-polyQ-hHtt co-transfected with a vector expressing Pep42-TAT, or • 3—GFP-polyQ-hHtt in the presence of an increasing quantity of Pep42-TAT synthetic peptide added to the culture medium.
FIG. 7c corresponds to the aggregate percentage identified by the GFP signal related to the polyQ-hHtt chain, in the presence of an increasing quantity of fusion peptide.

Sequence of hHtt548aa-128Q protein (P42858 with tags, fused parts or gaps limits assumed): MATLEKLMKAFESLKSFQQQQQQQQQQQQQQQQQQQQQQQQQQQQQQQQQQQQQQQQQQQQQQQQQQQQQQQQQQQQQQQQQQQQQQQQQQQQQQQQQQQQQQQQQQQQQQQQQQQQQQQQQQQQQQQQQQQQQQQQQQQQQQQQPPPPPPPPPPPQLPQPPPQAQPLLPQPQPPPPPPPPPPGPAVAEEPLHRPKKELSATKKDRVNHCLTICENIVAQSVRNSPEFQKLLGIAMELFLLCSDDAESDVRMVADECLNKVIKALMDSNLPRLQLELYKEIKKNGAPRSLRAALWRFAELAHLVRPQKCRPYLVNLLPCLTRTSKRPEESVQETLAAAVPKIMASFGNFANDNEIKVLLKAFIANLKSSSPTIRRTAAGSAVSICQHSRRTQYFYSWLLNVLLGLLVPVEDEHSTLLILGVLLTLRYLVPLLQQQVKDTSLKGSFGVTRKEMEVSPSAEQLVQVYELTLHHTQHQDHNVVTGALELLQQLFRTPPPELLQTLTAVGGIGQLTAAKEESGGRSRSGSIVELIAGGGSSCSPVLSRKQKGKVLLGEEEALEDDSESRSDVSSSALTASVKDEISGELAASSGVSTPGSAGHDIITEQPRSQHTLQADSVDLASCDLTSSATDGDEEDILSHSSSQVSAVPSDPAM
Sequence of GFP-hHtt171aa-136Q (GFP-polyQ-hHtt protein) (P42858 with tags, fused parts or gaps limits assumed): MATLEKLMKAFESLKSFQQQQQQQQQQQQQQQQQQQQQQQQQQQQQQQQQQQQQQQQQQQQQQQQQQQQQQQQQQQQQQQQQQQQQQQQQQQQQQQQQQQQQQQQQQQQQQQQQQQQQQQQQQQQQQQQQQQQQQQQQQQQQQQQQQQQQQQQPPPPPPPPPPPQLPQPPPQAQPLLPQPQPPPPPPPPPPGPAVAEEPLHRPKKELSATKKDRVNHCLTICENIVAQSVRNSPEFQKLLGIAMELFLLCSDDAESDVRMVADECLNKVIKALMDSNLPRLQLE
Sequence of GFP-hHtt171aa-136Q aggregates (P42858 with tags, fused parts or gaps limits assumed): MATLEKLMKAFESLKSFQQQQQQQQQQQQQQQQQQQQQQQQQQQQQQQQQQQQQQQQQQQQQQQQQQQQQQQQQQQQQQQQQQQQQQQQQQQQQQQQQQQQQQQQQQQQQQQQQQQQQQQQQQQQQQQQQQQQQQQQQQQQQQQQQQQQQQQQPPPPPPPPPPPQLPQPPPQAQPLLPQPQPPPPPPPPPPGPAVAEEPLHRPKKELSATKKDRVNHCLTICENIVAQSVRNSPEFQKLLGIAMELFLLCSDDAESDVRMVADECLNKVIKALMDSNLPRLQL
Sequence of GFP-P1 (first 98 aa with no polyQ domain) (P42858 with tags, fused parts or gaps DEL18-38 limits assumed): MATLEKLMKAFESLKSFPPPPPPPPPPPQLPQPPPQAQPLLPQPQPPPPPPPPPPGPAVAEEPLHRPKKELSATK

interaction with first 17 amino acids of Htt (co-immunoprecipitation) [6]: successfully repeated
Molecule: AASSGVSTPGSAGHDIITEQPRS (not fully specified) [pep42, 23 aa peptide contained in pep4, positions 480 to 502 of wild-type hHtt; tested Myc-, Cherry- or GFP-tagged]
aggregation of GFP-hHtt171aa-136Q (polyQ-hHtt) in HeLa cells [1]: no longer forms aggregates
interaction with Huntingtin N-terminal fragment (co-immunoprecipitation) (GFP-hHtt171aa-136Q): interacts directly with the N-terminal fragment of Huntingtin
interaction with N-terminal fragment lacking polyQ (co-immunoprecipitation) [2]: this interaction does not require the presence of the polyQ domain
viability and survival of adult flies (polyQ-hHtt): capable of rescuing
eye depigmentation and degeneration phenotype [3]: normal eyes
mobility of the larvae [4]: completely rescued
aggregation of polyQ-hHtt in salivary glands [5]: absence of aggregates
first step of aggregation (nucleation) [7]: interferes with the first step of aggregation
accumulation of polyQ-hHtt at the neuromuscular junctions (NMJs) (hHtt548aa-128Q protein [8]): non-accumulation of polyQ-hHtt at the NMJs
distribution of NPY-GFP vesicles along the axons (hHtt548aa-128Q protein [8]): better distribution of the vesicles along the axons
size of the polyQ-hHtt aggregates along axons (hHtt548aa-128Q protein [8]): reduction in the size of the polyQ-hHtt aggregates
eye degeneration phenotype, other polyQ genes [9]: Only flies expressing polyQ-hHtt (67aa or 548aa) have normal eyes
vesicle mean speed (hHtt548aa-128Q protein [10]): rescues
vesicle pause time (hHtt548aa-128Q protein [10]): rescues
quantification of aggregates by filtration [11]: confirmed by quantification

Molecule: AASSGVSTPGSAGHDIITEQPRSGGYGRKKRRQRRR (Pep42-TAT) [fusion peptide of Pep42 and TAT with 2 glycines inserted between]
aggregate percentage identified by the GFP signal (GFP-polyQ-hHtt (Q136)): decreases significantly; also recorded: protective activity of the fusion peptide is conserved

B1: QQLFRTPPPELLQTLTAVGGIGQLTAAKEESGGRSRSGSIVELIAGGG SSCSPVLSRKQKGKVLLGEEEALEDDSESRSDVSSSALTASVKDEISGELAAS SGVSTPGSAGHDIITEQPRSQHTLQADSVDLASCDLTSSATDGDEEDILSHSSS QVSAVPSDPAM (protein)
chain: QQLFRTPPPELLQTLTAVGGIGQLTAAKEESGGRSRSGSIVELIAGGGSSCSPVLSRKQKGKVLLGEEEALEDDSESRSDVSSSALTASVKDEISGELAASSGVSTPGSAGHDIITEQPRSQHTLQADSVDLASCDLTSSATDGDEEDILSHSSSQVSAVPSDPAM
modifications: Pep4
aggregation of GFP-hHtt171aa-136Q (polyQ-hHtt) in HeLa cells [1]: proved to be active; also recorded: inhibiting effect of polyQ-hHtt aggregation
aggregation of polyQ-hHtt in salivary glands [5]: absence of aggregates
quantification of aggregates by filtration [11]: confirmed by quantification
